Laboratory results: patent US20150110814A1, “COMBINATION THERAPIES WITH PSMA LIGAND CONJUGATES” (PSMA Development Company, LLC, priority 2013, published 2015)
Square brackets hold non-standard residues; d marks the D form. Peptide text beside a SMILES is read from it. * marks the point of attachment. Dolaproine = CO[C@@H]([C@@H]1CCCN1)[C@@H](C)C(=O)O; Dil = CC[C@H](C)[C@H](NC)[C@@H](CC(=O)O)OC; X1 = C[C@@H](N*)[C@@H](O)c1ccccc1; NMeV = CN[C@H](C(=O)O)C(C)C

Experiments:
[1] = system: LNCaP cells; experiment: Cell viability assay (CellTiter-Glo, inhibition of proliferation, Bliss synergy); format: cell-based, human; settings: for activity when combined with PSMA ADC: LNCaP cells (FIG. 8)
Description: (§1) Cells were plated at a density of 1×10^3 cells in 25 μL in 384-well white-colored microplates (Perkin Elmer) and cultured overnight. The next day, cells were treated with 1 or 2 drugs in a total volume of 50 μL. Cultures were incubated at 37° C. for 7 days. Viability was assessed on days 0 and 7 using CellTiter-Glo (Promega) and an Analyst GT luminescence reader at 560 nm emission (Molecular Devices). The percent inhibition of proliferation was calculated as (Vu−Vt)/(Vu−V0)×100, where Vu, Vt and V0 represent the viability values for untreated cells on day 7, treated cells on day 7, and cells prior to treatment on day 0, respectively. […] Values of >100% reflect cytotoxic compounds or combinations, where Vt<V0.
(§2) Drug combinations were tested in 3 to 7 independent repeat cell viability assays unless otherwise indicated Inhibition data were fit to a four-parameter logistic equation using GraphPad Prism. […] Bliss differences were calculated by subtracting the predicted value (Fc) from the experimentally observed inhibition. Mean Bliss differences were calculated for each point in a matrix of drug-drug combinations, converted to percentages, and assessed for statistical significance from the null value of zero using two-sided t-tests with a significance level of 0.05. Statistical evaluations were not performed in cases where the fractional growth inhibition exceeded unity, since such values fall outside the Bliss framework. In addition, Bliss differences of less than 5% were considered to be of limited biological relevance and were excluded from synergy considerations.

[2] = system: C4-2 cells; experiment: as above; format: cell-based, human; settings: for activity when combined with PSMA ADC: C4-2 cells (FIG. 8)
Description: as §1, §2

[3] = system: PSMA in LNCaP cells; experiment: Western blotting of total PSMA; format: cell-based, human; settings: 7 days, serial dilution of lysates
Description: (§3) Cells (300,000) were incubated overnight in 6-well plates (BD Falcon) in 4 mL of 10% FBS RPMI1640 media prior to addition of inhibitors. Plates were incubated at 37° C. for an additional 7 days, washed once with 5 mL of cold PBS(−) and placed on ice. Cells were lysed with 130 μL of RIPA Lysis Buffer (Santa Cruz Biotechnology) and then centrifuged at 14,000×g for 10 minutes at 4° C. The supernatant was quantitated for protein concentration using a BCA kit (Pierce/Thermo), resolved under reducing conditions using NuPAGE Novex 4-12% Bis-Tris gels (Life Technologies), and transferred to nitrocellulose using the iBlot 7-Minute Blotting System (Life Technologies). Membranes were blocked using Odyssey Blocking Reagent (LI-COR Biosciences), incubated with primary and secondary antibodies, and visualized using an Odyssey infrared imager (LI-COR Biosciences).

[4] = system: PSMA in C4-2 cells; experiment: Western blotting of total PSMA; format: cell-based, human; settings: 7 days
Description: as §3

[5] = system: PSMA expression on LNCaP cells; experiment: Flow cytometry of cell-surface PSMA expression; format: cell-based, human; settings: antiandrogens concentrations above 1 mM, 7 days post-treatment
Description: (§4) For short-term treatments (≦7 days), cells were plated on 24-well plates (BD Falcon) overnight, at a density of 200,000 cells per 500 μL. The next day, wells were exchanged with 500 μL of fresh media that included inhibitor, and incubated at 37° C. until the indicated time point. For the long-term treatments (>7 days), cells were plated on T-25 flasks (BD Falcon) overnight, at a density of 500,000 cells per flask in 5 mL of media. 5 mL of fresh media with or without treatment was exchanged the next day. On weekly splits thereafter, cells were detached with Cell Dissociation solution (Sigma), washed with fresh media, counted using Vi-CELL XR (Beckman Coulter), and split into two T-25 flasks for continued culture with or without inhibitor. Prior to analysis, cells were detached, counted and suspended in PBS (PBS(−), without Ca/Mg, Life Technologies) containing 0.3% bovine serum albumin (BSA, Sigma) and 0.1% sodium azide (VWR). Cells (100,000 in 100 μL) were placed in round-bottom 96-well plates (Falcon) and incubated for 30 minutes at room temperature with 1 μg/mL of anti-PSMA mAb 3.9 conjugated to phycoerythrin (PE). Cells then were washed twice with 200 μL PBS/BSA/azide buffer and read using a FACSCalibur instrument (BD Biosciences). A mouse IgG2b-PE conjugate of irrelevant specificity (Abcam) was included as an isotype control.

[6] = system: PSMA expression on C4-2 cells; experiment: Flow cytometry of cell-surface PSMA expression; format: cell-based, human; design: cell-surface PSMA expression / PSMA expression on treated cells relative to untreated cells: dose or concentration left out as unconfirmed; settings: for cell-surface PSMA expression: 7 days post-treatment
Description: as §4

[7] = system: metastatic, castration-resistant prostate cancer (mCRPC); settings: subjects with mCRPC; cited from earlier work

SMILES	single-agent antiproliferative effect ([1]; LNCaP cells, single agent)	effect on the activity of PSMA ADC ([2]; C4-2 cells)	single-agent antiproliferative effect ([2]; C4-2 cells, single agent)	activity when combined with PSMA ADC [1]	activity when combined with PSMA ADC [2]	further results
CNC(=O)c1ccc(N2C(=S)N(c3cnc(C#N)c(C(F)(F)F)c3)C(=O)C23CCC3)cc1F [ARN-509]	inhibited proliferation	enhanced the activity of PSMA ADC	minimal antiproliferative effects			
CNC(=O)c1ccc(N2C(=S)N(c3ccc(C#N)c(C(F)(F)F)c3)C(=O)C2(C)C)cc1F [Enzalutamide, enzalutamide]	inhibited proliferation	significantly enhanced the activity of PSMA ADC	minimal antiproliferative effects			magnitude of increase in PSMA (Western, semi-quantitative) [3]: approximately 5 fold; PSMA upregulation (Western) [4]: upregulated PSMA to similar extents; cell-surface PSMA expression [5]: approximately doubled; cell-surface PSMA expression ([6]; C4-2): approximately doubled; cell-surface PSMA expression ([6]; C4-2, listed as enzalutamide): doubled; time for PSMA expression to return to baseline in the absence of drug ([6]; C4-2, after 3 weeks culture in enzalutamide): ≤ 7 days; PSMA expression on treated cells relative to untreated cells ([6]; C4-2, after 21 days): 4 fold; exposure time to maximal PSMA expression ([6]; FIG. 15, cell line not stated in legend): 3 to 4 weeks
CS(=O)(=O)N1CCN(Cc2cc3nc(-c4cccc5[nH]ncc45)nc(N4CCOCC4)c3s2)CC1 [GDC-0941, 2-(1H-indazol-4-yl)-6-(4-methanesulfonyl-piperazin-1-ylmethyl)-4-morpholin-4-yl-t hieno[3,2-d]pyrimidine]				additive to weakly synergistic activity	additive to weakly synergistic activity	
CO[C@H]1C(=O)[C@]2(C)[C@@H](OC)C[C@H]3OC[C@@]3(OC(C)=O)[C@H]2[C@H](OC(=O)c2ccccc2)[C@]2(O)C[C@H](OC(=O)[C@H](O)[C@@H](NC(=O)OC(C)(C)C)c3ccccc3)C(C)=C1C2(C)C [Jevtana, cabazitaxel]						survival benefit [7]: 2.4 month
NC1(c2ccc(-c3nc4ccn5c(=O)[nH]nc5c4cc3-c3ccccc3)cc2)CCC1 [MK-2206]				additive to weakly synergistic activity	additive to weakly synergistic activity	
CC[C@H](C)[C@@H]([C@@H](CC(=O)N1CCC[C@H]1[C@H](OC)[C@@H](C)C(=O)N[C@H](C)[C@@H](O)c1ccccc1)OC)N(C)C(=O)[C@@H](NC(=O)[C@@H](NC)C(C)C)C(C)C [MMAE, monomethylauristatin norephedrine] (H-[NMeV]V[Dil][Dolaproine]-X1)						activity when paired with enzalutamide or abiraterone ([1]; LNCaP cells): additive activity; IC50 ([1]; LNCaP cells, single agent, 7 days): ~500 pM; activity when paired with enzalutamide or abiraterone ([2]; C4-2 cells): additive to weakly synergistic activity; IC50 ([2]; C4-2 cells, single agent, 7 days): ~500 pM
C[C@]12C=CC(=O)C=C1CC[C@@H]1[C@@H]2C(=O)C[C@@]2(C)[C@H]1CC[C@]2(O)C(=O)CO [Prednisone, prednisone]				additive to weakly synergistic activity	additive to weakly synergistic activity	
CO[C@H]1C[C@@H]2CC[C@@H](C)[C@@](O)(O2)C(=O)C(=O)N2CCCC[C@H]2C(=O)O[C@H]([C@H](C)C[C@@H]2CC[C@@H](O)[C@H](OC)C2)CC(=O)[C@H](C)/C=C(\C)[C@@H](O)[C@@H](OC)C(=O)[C@H](C)C[C@H](C)/C=C/C=C/C=C/1C [Rapamycin, rapamycin]						increase in PSMA expression ([6]; C4-2, low nanomolar concentrations, 7 days): > 2 fold
Cc1ccc(C(=O)N(CCCN)[C@@H](c2oc3cc(Cl)ccc3c(=O)c2Cc2ccccc2)C(C)C)cc1 [SB-743921]				additive to weakly synergistic activity	additive to weakly synergistic activity	
C[C@]12CC[C@H](O)CC1=CC[C@@H]1[C@@H]2CC[C@]2(C)C(n3cnc4ccccc43)=CC[C@@H]12 [TOK-001, galeterone]	inhibited proliferation	enhanced the activity of PSMA ADC	minimal antiproliferative effects			
